# Tests used:
# Format in all cases: cell-based
# [1] = tested on: collagen production in fibroblasts; assay: Collagen production in fibroblasts treated with oxytocin; conditions: 72 hours
# Procedure: FIG. 2. Fibroblasts were treated with oxytocin for 72 hours.
# [2] = tested on: elastin production in fibroblasts; assay: Elastin production in fibroblasts treated with oxytocin; conditions: 72 hours
# Procedure: FIG. 3. Fibroblasts were treated with oxytocin for 72 hours.
# [3] = tested on: IL-15 production in keratinocytes; assay: IL-15 production in keratinocytes treated with oxytocin; conditions: 24 hours
# Procedure: FIG. 4. Keratinocytes were treated with oxytocin for 24 hours.
structure (smiles),measurement,setting,value
CC[C@H](C)[C@@H]1NC(=O)[C@H](Cc2ccc(O)cc2)NC(=O)[C@@H](N)CSSC[C@@H](C(=O)N2CCC[C@H]2C(=O)N[C@@H](CC(C)C)C(=O)NCC(N)=O)NC(=O)[C@H](CC(N)=O)NC(=O)[C@H](CCC(N)=O)NC1=O [oxytocin],increase in collagen production compared to untreated control,[1]; 25 μg/mL oxytocin,+109%
same,increase in collagen production compared to untreated control,[1]; 100 μg/mL oxytocin,+117%
same,increase in elastin production compared to untreated control,[2]; 25 ng/mL oxytocin,+166%
same,increase in elastin production compared to untreated control,[2]; 100 ng/mL oxytocin,+127%
same,increase in elastin production compared to untreated control,[2]; 25 μg/mL oxytocin,+133%
same,increase in elastin production compared to untreated control,[2]; 100 μg/mL oxytocin,+117%
same,increase in IL-15 production compared to untreated control,[3]; 25 ng/mL oxytocin,+50%
same,increase in IL-15 production compared to untreated control,[3]; 100 ng/mL oxytocin,+90%
same,increase in IL-15 production compared to untreated control,[3]; 5 μg/mL oxytocin,+121%
same,increase in IL-15 production compared to untreated control,[3]; 25 μg/mL oxytocin,+165%
same,increase in IL-15 production compared to untreated control,[3]; 100 μg/mL oxytocin,+331%

# Reference: patent US20250099364A1, “METHOD AND COMPOSITIONS FOR COSMETIC COMPOSITIONS” (MARY KAY INC., priority 2023, published 2025)
